Measurements taken from patent publication US20250049737A1, “Lauflumide and derivatives thereof for treating chronic fatigue syndrome and myalgic encephalomyelitis/chronic fatigue syndrome (ME/CFS)” (NLS Pharmaceutics AG, priority 2021, published 2025).
“Also recorded” adds a separate entry of the source.

Assays:
[1] = system: cocaine conditioned place preference; conditions: 128 mg/kg; rats; cited from earlier work
[2] = system: Rat model of severe fatigue; assay: Rat model of severe fatigue (sleep deprivation): recording of circadian locomotor activity; type: in vivo, Rats, Sprague-Dawley; conditions: for Difference of distance travelled between the dark phase and the light phase / Distance travelled during the 12-h dark phase / Distance travelled during the 12-h light phase / Total distance travelled during the full 24-h period: days 1, 2 and 3
Procedure: In the following example, Lauflumide is also called NLS-4.
Animals are individually housed in transparent polycarbonate cages (1354G Eurostandard Type IV cage, Tecniplast, Italy, 595×380×200 mm, floor area=1820 cm^2) filled with water (23±1° C.) to a height of 1.5 cm. A platform (5 cm height, 6.5 cm diameter) was located at the center of the cage. Animals can stay on the platform in order to stay dry but falls from it when it falls in deep sleep. […] During this period, animals were placed in a modified light/dark cycle with variable durations of the light and dark periods which change every day. This procedure is intended to disrupt the circadian rhythm.
The Sham group was housed in normal condition for the same period under a 12/12 h light/dark cycle.
After the end of the fatigue period, animals were placed in transparent polycarbonate cages (Type E, Iffa Credo, France, 450×300×200 mm, floor area=1032 cm^2), under a 12 h/12 h cycle. Cages were covered with a stainless steel grid in which food and a bottle are placed. A stainless steel removable divider separated food and water. The cages were placed in infrared photobeam detection systems (Acti-track, LSI Leticca, Panlab) allowing to record continuously the distance travelled in the cage. Locomotor activity was recorded continuously for 3 days. The test started at the beginning of the dark phase of the light/dark cycle.
Seventy-six animals were subjected to the fatigue procedure and to the tests as described above. Twelve animals (Sham group) were housed in standard condition.
(§1) After the end of the Fatigue procedure, animals were divided into 10 groups which received before tests (total: 3 administrations) a per-os (p.o., oral gavage) administration of: • Sham (no fatigue) group (N=12): Vehicle. • Control group (N=11): Vehicle. • Modafinil 32 (N=10): modafinil (32 mg/kg). • Modafinil 64 (N=10): modafinil (64 mg/kg). • Modafinil 128 (N=5): modafinil (128 mg/kg). • NLS-4 16 (N=5): NLS-4 (16 mg/kg). • NLS-4 32 (N=10): NLS-4 (32 mg/kg). • NLS-4 64 (N=10): NLS-4 (64 mg/kg). • NLS-4 128 (N=10): NLS-4 (128 mg/kg). • NLS-4 256 (N=5): NLS-4 (256 mg/kg).
Read-out: distance travelled during 24-h periods, 12-h dark and light periods and during 2-h periods.
Data are expressed as mean and standard error of mean (SEM).
Statistical analyses: Student's t test, repeated measure ANOVA.
A difference is considered statistically significant at p≤0.05.

[3] = Body weight during fatigue procedure and test period; type: in vivo, Rats, Sprague-Dawley; conditions: 32-128 mg/kg p.o.; test period
Procedure: FIG. 26 Body weight (in g; mean, SEM) before the beginning and during the fatigue procedure (F-D1-7) and during the test period (T-D1-D3+24 h).
Animals were weighed every day.
as §1

[4] = 32 mg/kg p.o., vs. Control (fatigue) group
[5] = 32 mg/kg p.o., vs. Sham (no fatigue) group
[6] = 64 mg/kg p.o., vs. Control (fatigue) group
[7] = 64 mg/kg p.o., vs. Sham (no fatigue) group
[8] = 128 mg/kg p.o., vs. Control (fatigue) group
[9] = 128 mg/kg p.o., vs. Sham (no fatigue) group

NC(=O)C[S+]([O-])C(c1ccccc1)c1ccccc1 (stereo not drawn) [Modafinil, reference compound]
Cocaine conditioned place preference following extinction [1]: strongly reinstated | Motor activity during the first 2-h periods following the dosing ([2]; 32 mg/kg p.o.): increased | Activity during the following 22 h ([2]; 32 mg/kg p.o., after the first 2-h period following dosing): few or no modification | Difference of distance travelled between the dark phase and the light phase [2, 4]: not significantly different | Distance travelled during the 12-h dark phase [2, 4]: not significantly different | Distance travelled during the 12-h light phase [2, 4]: not significantly different | Total distance travelled during the full 24-h period [2, 4]: not significantly different | Difference of distance travelled between the dark phase and the light phase [2, 5]: not lower than the Sham group on days 1 and 2 only | Distance travelled during the 12-h dark phase [2, 5]: lower than the Sham group during the dark phase on days 1 and 2 only | Distance travelled during the 12-h light phase [2, 5]: higher than the Sham group during the light phase on day 1 only | Total distance travelled during the full 24-h period [2, 5]: not significantly different | Motor activity during the first 2-h periods following the dosing ([2]; 64 mg/kg p.o.): increased | Difference of distance travelled between the dark phase and the light phase [2, 6]: higher; also recorded: increased | Distance travelled during the 12-h dark phase [2, 6]: higher | Distance travelled during the 12-h light phase [2, 6]: not significantly different | Total distance travelled during the full 24-h period [2, 6]: higher | Difference of distance travelled between the dark phase and the light phase [2, 7]: not significantly different | Distance travelled during the 12-h dark phase [2, 7]: not significantly different | Distance travelled during the 12-h light phase [2, 7]: not significantly different | Total distance travelled during the full 24-h period [2, 7]: not significantly different | Difference of distance travelled between the dark phase and the light phase [2, 8]: higher for the Modafinil 128 group than for the Control group on days 1 and 2 only; also recorded: increased | Distance travelled during the 12-h dark phase [2, 8]: higher for the Modafinil 128 group than for the Control group during the dark period on days 1 and 2 only | Distance travelled during the 12-h light phase [2, 8]: not significantly different | Total distance travelled during the full 24-h period [2, 8]: higher for the Modafinil 128 group than for the Control group on day 1 only | Distance travelled during the 12-h dark phase [2, 9]: increase the distance travelled in comparison with the Sham group during the dark phase on day 1 | Total distance travelled during the full 24-h period [2, 9]: increase the distance travelled in comparison with the Sham group on day 1 | Weight loss induced by the fatigue procedure [3]: not modified
